We go through six compounds from patent US20030059511A1, “Sweetener compositions and uses thereof” (AJINOMOTO CO., INC., priority 1999, published 2003).

Assay [1] in a line: Magnification of sweetness intensity in the cola drink (sensory evaluation against sucrose cola drinks). It counts as in vivo, human. From the text:
And the magnification of sweetness intensity in the cola drink can be also determined by the same method compared to the control solution of cola drink containing 10% sucrose.
The composition of cola drink is as follows.
As for the concentration of the references, the sucrose concentrations of previous (a) to (e) were used. In consequence, the magnification of sweetness intensity in the cola drink of derivative 1 was 22600 times, and that of derivative 2 was 4900 times.
And the magnification of sweetness intensity in the cola drink can be also determined by the same method compared to the reference solution of cola drink containing 10% sucrose.
The components of cola drink is as follows.
As for the concentration of the references, the sucrose concentrations of previous (a) to (e) were used. As the results, the magnification of sweetness intensity in the cola drink of derivative 1 was 22600 times, and that of derivative 2 was 4900 times.
And the magnification of sweetness in the cola drink can be also determined by the same method compared to the control solution of cola drink containing 10% sucrose.
As for the concentration of the references, the sucrose concentrations of previous (a) to (e) were used. As a result, the magnification of sweetness intensity in the cola drink of derivative 1 was 22600 times, and that of derivative 2 was 4900 times.

The nature of assay [2]: Measurement of the magnification of sweetness intensity in aqueous solution (sensory evaluation against sucrose solutions). The format is in vivo, human. To be noted: aqueous solution. The method, then:
An aqueous solution was prepared by diluting derivative 2 to be PSE 10% concentration (15.5 mg/1000 ml=10/6500 g/100 ml), assuming that the intensity of sweetness of derivative 2 was 6500 times that of sucrose. Separately, aqueous sucrose solutions having sucrose concentrations of (a)6.94%, (b)8.33%, (c)10%, (d)12%, and (e)14.4% were prepared. The sensory evaluation was performed by determining which sucrose solution was closest to the solution of derivative 2 in the sweetness intensity. The result of calculation of the average of points of 20 panelists was 2.25 point.
The intensity of sweetness of the solution of derivative 2 was 8.75% according to the following equation: (10.0−8.33)×0.25+8.33=8.75. Accordingly, the intense sweetness of derivative 2 was 5600 (=8.75/0.00155) times that of sucrose. According to the same experiment, the intensity of sweetness of derivative 1 was 22600 times that of sucrose. Furthermore, the magnification of sweetness intensity of other derivatives (3 to 9) can be determined by the same method.
The intensity of sweetness of the solution of derivative 2 was 8.75% according to the following equation: (10.0−8.33)×0.25+8.33=8.75. Accordingly, the intensity of sweetness of derivative 2 was 5600 (=8.75/0.00155) times that of sucrose. According to the same experiment, the intensity of sweetness of derivative 1 was 22600 times that of sucrose. Furthermore, the magnification of sweetness intensity of other derivatives (3 to 9) can be determined by the same method.
An aqueous solution was prepared by diluting derivative 2 to be PSE 10% concentration (15.5 mg/1000 ml=10/6500 g/100 ml), assuming that the intense sweetness of derivative 2 was 6500 times that of sucrose. Separately, aqueous sucrose solutions having sucrose concentrations of (a)6.94%, (b)8.33%, (c)10%, (d)12%, and (e)14.4% were prepared. The sensory evaluation was performed by determining which sucrose solution was closest to the solution of derivative 2 in the sweetness intensity. The result of calculation of the average of points of 20 panelists was 2.25 point.
The sweetness intensity of the solution of derivative 2 was 8.75% according to the following equation: (10.0−8.33)×0.25+8.33=8.75. Therefore, the magnification of sweetness intensity of derivative 2 was 5600 (=8.75/0.00155) times that of sucrose. When the same experiment was performed, the magnification of sweetness intensity of derivative 1 was 22600 times that of sucrose.

Assay [3] in a line: Taste characteristics in an aqueous solution (9 items, similarity index vs aqueous 10% sucrose solution). The format is in vivo, human. To be noted: PSE 10%, smaller = closer to sucrose, 8 panelists. As for the experimental part: The following experiments were performed using the water obtained by ion exchanging and further distilling the water.
An aqueous solution of each of derivatives 1 to 9 having a sweetness level equivalent to that of PSE 10% was prepared, and compared with aqueous 10% sucrose solution with respect to the following 9 items, i.e., “onset of the taste”, “round taste”, “clear taste”, “lingering taste”, “peculiar taste”, “heavy taste”, “bitter taste”, “astringent taste” and “irritation”. The results were determined as 5 levels (−2 point: very weak, −1 point: a little weak, 0 point: same, +1 point: a little strong, +2 point: very strong) by 8 panelists, and the average points were calculated. The sample solutions of the derivatives equivalent to PSE 10%, were prepared by using the magnification of sweetness intensity measured in Example 1, and the amounts of each derivatives to be used were as follows.
Next, the total of the absolute value of the deviation from sucrose in each of the evaluation items consisting of the onset of the taste, the round taste, the clear taste, the lingering taste, the peculiar taste, the heavy taste, the bitter taste, the astringent taste and the irritation was divided by 9 (total number of items) to calculate the similarity (which is referred to as “similarity index”). The smaller the similarity index becomes, the better the taste balances, and the closer the taste is to the taste characteristics (quality) of sucrose. The total taste becomes preferable. The similarity indexes of each derivatives are shown as follows.
To the aqueous solution of derivative 1 having a sweetness level equivalent to that of PSE 10%, salt was added as final concentratins of 0.1%, 0.2% and 0.5% to compare with the aqueous solution of 10% sucrose for by 2 points comparison method (n=8) and evaluate the characteristics of the taste.
The sensory evaluation was performed by the same way as Example 6.
The following experiments were conducted using the water obtained by ion exchanging and further distilling tap water.
An aqueous solution of each of derivatives 1 to 9 having a sweetness level equivalent to that of PES 10% was prepared, and compared with aqueous 10% sucrose solution with respect to 9 items, namely, “the onset of the taste”, “round taste”, “clear taste”, “lingering taste”, “peculiar taste”, “heavy taste”, “bitter taste”, “astringent taste” and “irritation”. The results were determined as 5 levels (−2 point: very weak, −1 point: a little weak, 0 point: same, +1 point: a little strong, +2 point: very strong) by 8 panelists, and the average points were calculated.
Next, the total of the absolute value of the deviation from sucrose in each of the evaluation items consisting of onset of the taste, round taste, clear taste, lingering taste, peculiar taste, heavy taste, bitter taste, astringent taste and irritation was divided by 9 (total number of items) to calculate the similarity (which is refer to as “similarity index”). The smaller the similarity index becomes, the better the taste balances, and the closer the taste is to the taste characteristics (quality) of sucrose. The total taste becomes preferable. The similarity indexes of each of the derivatives are shown as follows.

The nature of assay [4]: Taste characteristics in a cola drink (9 items, similarity index vs cola drink containing 10% sucrose). To be noted: non-carbonated cola drink, PSE 10%, vs cola drink with 10% sucrose; smaller = closer to sucrose; 8 panelists. The format is in vivo, human. The method, then:
The following experiments were performed in the same way as that of Example 2. Instead of aqueous solution, the cola drink of each of derivatives 1 to 9 having a sweetness level equivalent to that of PSE 10% was prepared, and compared with the cola drink containing 10% sucrose. The evaluation method and so on were same as that of Example 2.
When carbon dioxide is blown in the cola drink, the carbonated cola drink is prepared, however, the taste of the cola drink can be compared more easily in that without carbon dioxide. Thus the sensory evaluation of non-carbonated cola drink was performed.
The composition of the cola drink employed was same as that of Example 1.
The similarity indexes were calculated as those of aqueous solutions. The smaller the similarity index becomes, the better the taste balances, and the closer the taste is to the taste characteristics (quality) of sucrose. The total taste becomes preferable. The similarity indexes of each derivatives are shown as follows. […]
The following experiments were conducted in the same way as that of Example 15. Instead of aqueous solution, the cola drink of each of derivatives 1 to 9 having a sweetness level equivalent to that of PSE 10% was prepared, and compared with the cola drink containing 10% sucrose. All of the evaluation method and so on were same as those of Example 15.
When carbon dioxide is blown in the cola drink, the carbonated cola drink is prepared, however, the taste of the cola drink can be compared more easily in that without carbon dioxide. Thus the non-carbonated cola drink was organoleptically evaluated.
The composition of the cola drink employed was same as that of Example 14.
The similarity indexes were calculated as those of aqueous solutions. The smaller the similarity index becomes, the better the taste balances, and the closer the taste is to the taste characteristics (quality)of sucrose. The total taste becomes preferable. The similarity indexes of each of the derivatives are shown as follows. […]

For assay [5] the following is noted: cited from earlier work.
Assay [6] can be described thus: Equivalent concentration of bitter taste, sensory evaluation, mixed amino acids (Example 29). It counts as in vivo, human. To be noted: 2% mixed amino acids; addition: Derivative 2 10 ppm, Glycyrrhizin 250 ppm, Sucrose 50000 ppm; no addition 0.105. The method, then: With respect to the solution produced by adding derivative 1 (the product of the present invention), or adding nothing (no addition; the reference product) in the concentration shown in the following table 4 to the amino acid solution (2% solution of arginine by weight), the sensory evaluation was performed (using 10 panelists), and the equivalent concentration of bitter taste was determined. The results were shown in the table 4, wherein the equivalent concentration of bitter taste was shown in the concentration of aqueous solution of anhydrous caffeine which is a substance of bitter taste.
With respect to the solution produced by adding derivative 2, Glycyrrhizin or sucrose (the product of the present invention), or adding nothing (no addition; the-reference product) to 2% (by weight) solution of the mixed amino acids (leucine:valine:isoleucine=1:0.5:0.5 by weight), the sensory evaluation was performed (using 10 panelists), and the equivalent concentration of bitter taste was determined in the same way as that described in Example 28, and shown in the table 5.

For `COC(=O)[C@H](Cc1ccccc1)NC(=O)[C@H](CC(=O)O)NCCC(C)(C)c1ccc(OC)cc1` [Derivative 5, N-[N-[3-(4-methoxyphenyl)-3-methylbutyl] -L-α-aspartyl] -L-phenylalanine 1-methyl ester], the “Amount equivalent to PSE 10%” value is recorded as 12.5 mg/1000 ml in assay [1] and 11.9 mg/1000 ml in assay [2]. In addition, the Similarity index in assay [3] is recorded as 1.38; in assay [4], 1.34.

Turning to `COC(=O)[C@H](Cc1ccccc1)NC(=O)[C@H](CC(=O)O)NCCCc1ccc(O)cc1O` [Derivative 9, N-[N-[3-(2,4-dihydroxyphenyl)propyl]-L-α-aspartyl]-L-phenylalanine 1-methyl ester], the results for the “Amount equivalent to PSE 10%” value in assay [1] and in assay [2] were 13.3 mg/1000 ml and 12.5 mg/1000 ml, respectively. The Similarity index was 0.77 in assay [3] and 1.00 in assay [4].

For the compound `COC(=O)[C@H](Cc1ccccc1)NC(=O)[C@H](CC(=O)O)NCCC(C)(C)c1ccc(OC)c(O)c1` [Derivative 3, N-[N-[3-(3-hydroxy-4-methoxyphenyl)-3-methylbutyl]-L-α-aspartyl]-L-phenylalanine 1-methyl ester], the “Amount equivalent to PSE 10%” value in assay [1] is listed as 2.7 mg/1000 ml; in assay [2], 2.3 mg/1000 ml. In addition, the Similarity index in assay [3] was determined as 1.04; in assay [4] it was 1.11.

Take `OC[C@H]1O[C@@](CO)(O[C@H]2O[C@H](CO)[C@@H](O)[C@H](O)[C@H]2O)[C@@H](O)[C@@H]1O` [Sucrose]: in assay [5] (values used for calculation in Example 17, sucrose = 1), the “magnification of sweetness intensity (numerical values in brackets)” value was 1. In addition, the “Equivalent concentration of bitter taste” value in assay [6] stood at 0.067 g/100 g. The compound further registered a Similarity index in assay [4] of 0.

Take `CC1(C)[C@@H](O[C@H]2O[C@H](C(=O)O)[C@@H](O)[C@H](O)[C@H]2O[C@@H]2O[C@H](C(=O)O)[C@@H](O)[C@H](O)[C@H]2O)CC[C@]2(C)[C@H]3C(=O)C=C4[C@@H]5C[C@@](C)(C(=O)O)CC[C@]5(C)CC[C@@]4(C)[C@]3(C)CC[C@@H]12` [Glycyrrhizin]: the “magnification used for the sweetness intensity of the another sweetener with a high intense sweetness” value in assay [5] (values used for calculation in Example 5) is on record as 170 times. Moreover, the “Equivalent concentration of bitter taste” value in assay [6] is 0.105 g/100 g.

Regarding `COC(=O)[C@H](Cc1ccccc1)NC(=O)[C@H](CC(=O)O)NCCCc1ccc(OC)cc1O` [Derivative 7, N-[N-[3-(2-hydroxy-4-methoxyphenyl)propyl]-L-α-aspartyl]-L-phenylalanine 1-methyl ester], the “Amount equivalent to PSE 10%” value in assay [1] amounted to 9.4 mg/1000 ml; in assay [2], 9.0 mg/1000 ml. Besides, the Similarity index in assay [3] was found to be 0.86; in assay [4], 0.90.
